Source: ChEMBL document CHEMBL4043204, “meso-Dihydroguaiaretic acid derivatives with antibacterial and antimycobacterial activity” (Bioorg Med Chem, 2017)
Converted amounts (≈) assume the structure as drawn. The source made the active and inactive calls. The rule behind the calls is not given here.

Legend:
Bacillus subtilis = assay: Antibacterial activity against Bacillus subtilis; format: functional
Jonesia denitrificans = assay: Antibacterial activity against Listeria denitrificans; format: functional
Salmonella enterica = assay: Antibacterial activity against Salmonella choleraesuis; format: functional
[1] = tested on: Staphylococcus epidermidis; assay: Antibacterial activity against linezolid-resistant Staphylococcus epidermidis (14-583) assessed as inhibition of microbial growth incubated for 24 hrs by microdilution assay; format: functional
Klebsiella pneumoniae [2] = assay: Antibacterial activity against NDM-1 positive Klebsiella pneumoniae (14-3335) assessed as inhibition of microbial growth up to 50 ug/ml incubated for 24 hrs by microdilution assay; format: functional
[3] = Selectivity index, ratio of IC50 for cytotoxicity against African green monkey Vero cells to MIC for antibacterial activity against methicillin-resistant Staphylococcus aureus (14-2095)
[4] = Selectivity index, ratio of IC50 for cytotoxicity against African green monkey Vero cells to MIC for Mycobacterium tuberculosis H37Rv ATCC 27294; format: toxicity, cell-based; conditions: read-out: Selectivity Index
[5] = tested on: Stenotrophomonas maltophilia; assay: Antibacterial activity against trimethoprim-sulfamethoxazole-resistant Stenotrophomonas maltophilia assessed as inhibition of microbial growth up to 50 ug/ml incubated for 24 hrs by microdilution assay; format: functional
Staphylococcus aureus [6] = assay: Antibacterial activity against methicillin-resistant Staphylococcus aureus (14-2095) assessed as inhibition of microbial growth incubated for 24 hrs by microdilution assay; format: functional
Escherichia coli [7] = assay: Antibacterial activity against oxacillin-resistant Escherichia coli OXA-48 assessed as inhibition of microbial growth up to 50 ug/ml incubated for 24 hrs by microdilution assay; format: functional
Acinetobacter baumannii = assay: Antibacterial activity against carbapenem-resistant Acinetobacter baumannii (12-666) assessed as inhibition of microbial growth up to 50 ug/ml incubated for 24 hrs by microdilution assay; format: functional
Pseudomonas aeruginosa = assay: Antibacterial activity against carbapenem-resistant Pseudomonas aeruginosa (13-1391) assessed as inhibition of microbial growth up to 50 ug/ml incubated for 48 hrs by microdilution assay; format: functional
Klebsiella pneumoniae [8] = assay: Antibacterial activity against extended-spectrum beta-lactamase-positive Klebsiella pneumoniae (14-2081) assessed as inhibition of microbial growth up to 50 ug/ml incubated for 24 hrs by microdilution assay; format: functional
Escherichia coli [9] = assay: Antibacterial activity against extended-spectrum beta-lactamase-positive Escherichia coli (14-2081) assessed as inhibition of microbial growth up to 50 ug/ml incubated for 24 hrs by microdilution assay; format: functional
[10] = tested on: Mycobacterium tuberculosis; assay: Antimycobacterial activity against Mycobacterium tuberculosis H37Rv ATCC 27294 assessed as inhibition of mycobacterial growth incubated for 2 weeks by MABA method; format: functional; conditions: for MIC: Mycobacterium tuberculosis, H37Rv ATCC 27294, 336 h
Vero = assay: Cytotoxicity against African green monkey Vero cells assessed as reduction in cell viability incubated for 24 hrs by trypan blue staining based assay; conditions: Chlorocebus sabaeus
Enterococcus faecium = assay: Antibacterial activity against vancomycin-resistant Enterococcus faecium (10-984) assessed as inhibition of microbial growth incubated for 24 hrs by microdilution assay; format: functional
Providencia rettgeri = assay: Antibacterial activity against NDM-1 positive Providencia rettgeri assessed as inhibition of microbial growth up to 50 ug/ml incubated for 24 hrs by microdilution assay; format: functional
[11] = tested on: Staphylococcus haemolyticus; assay: Antibacterial activity against linezolid-resistant Staphylococcus haemolyticus 2975 assessed as inhibition of microbial growth incubated for 24 hrs by microdilution assay; format: functional; conditions: Staphylococcus haemolyticus, 2975, 24 h
[12] = tested on: Mycobacterium tuberculosis; assay: Antimycobacterial activity against Mycobacterium tuberculosis H37Rv ATCC 27294 assessed as inhibition of mycobacterial growth up to 50 ug/ml incubated for 2 weeks by MABA method; format: functional
Staphylococcus aureus [13] = assay: Antibacterial activity against Staphylococcus aureus; format: functional
Staphylococcus aureus [14] = assay: Antibacterial activity against methicillin-resistant Staphylococcus aureus; format: functional

COc1cc(C[C@H](C)[C@@H](C)Cc2ccc(O)c(OC)c2)ccc1O
MIC (Bacillus subtilis): 1600 µM (≈ 529 µg/mL) | MIC (Jonesia denitrificans): 400 µM (≈ 132 µg/mL) | MIC (Salmonella enterica): 3.1 mM (≈ 1020 µg/mL)

COc1cc(C[C@@H](C)[C@@H](C)Cc2ccc(OCCN3CCOCC3)c(OC)c2)ccc1OCCN1CCOCC1
MIC [1]: > 50 µg/mL | Activity (Klebsiella pneumoniae [2]): inactive | Selectivity Index [3]: 1.43 | selectivity ratio [4]: 2.87 | Activity [5]: inactive | MIC (Staphylococcus aureus [6]): 50 µg/mL | Activity (Escherichia coli [7]): inactive | Activity (Acinetobacter baumannii): inactive | Activity (Pseudomonas aeruginosa): inactive | Activity (Klebsiella pneumoniae [8]): inactive | Activity (Escherichia coli [9]): inactive | MIC [10]: 25 µg/mL (≈ 44.9 µM) | IC50 (Vero): 71.6 µg/mL (≈ 129 µM) | MIC (Enterococcus faecium): > 50 µg/mL | Activity (Providencia rettgeri): inactive | MIC [11]: > 50 µg/mL

COc1cc(C[C@@H](C)[C@@H](C)Cc2ccc(OCCN3CCCCC3)c(OC)c2)ccc1OCCN1CCCCC1
MIC [1]: > 50 µg/mL | Activity (Klebsiella pneumoniae [2]): inactive | Selectivity Index [3]: 1.46 | selectivity ratio [4]: 23.4 | Activity [5]: inactive | MIC (Staphylococcus aureus [6]): 50 µg/mL | Activity (Escherichia coli [7]): inactive | Activity (Acinetobacter baumannii): inactive | Activity (Pseudomonas aeruginosa): inactive | Activity (Klebsiella pneumoniae [8]): inactive | Activity (Escherichia coli [9]): inactive | MIC [10]: 3.12 µg/mL (≈ 5.65 µM) | IC50 (Vero): 73.2 µg/mL (≈ 132 µM) | MIC (Enterococcus faecium): 50 µg/mL | Activity (Providencia rettgeri): inactive | MIC [11]: 50 µg/mL

COc1cc(C[C@@H](C)[C@@H](C)Cc2ccc(OCCN3CCCCC3)c(OC)c2)ccc1O (racemic)
MIC [1]: 50 µg/mL | Activity (Klebsiella pneumoniae [2]): inactive | Selectivity Index [3]: 1.25 | selectivity ratio [4]: 5.01 | Activity [5]: inactive | MIC (Staphylococcus aureus [6]): 50 µg/mL | Activity (Escherichia coli [7]): inactive | Activity (Acinetobacter baumannii): inactive | Activity (Pseudomonas aeruginosa): inactive | Activity (Klebsiella pneumoniae [8]): inactive | Activity (Escherichia coli [9]): inactive | MIC [10]: 12.5 µg/mL (≈ 28.3 µM) | IC50 (Vero): 62.6 µg/mL (≈ 142 µM) | MIC (Enterococcus faecium): 50 µg/mL | Activity (Providencia rettgeri): inactive | MIC [11]: 50 µg/mL

COc1cc(C[C@@H](C)[C@@H](C)Cc2ccc(OC(C)=O)c(OC)c2)ccc1O (racemic)
MIC [1]: > 50 µg/mL | Activity (Klebsiella pneumoniae [2]): inactive | Selectivity Index [3]: 4.46 | selectivity ratio [4]: 2.23 | Activity [5]: inactive | MIC (Staphylococcus aureus [6]): 25 µg/mL | Activity (Escherichia coli [7]): inactive | Activity (Acinetobacter baumannii): inactive | Activity (Pseudomonas aeruginosa): inactive | Activity (Klebsiella pneumoniae [8]): inactive | Activity (Escherichia coli [9]): inactive | -logMIC [10]: 4.07 | MIC [10]: 50 µg/mL (≈ 134 µM) | IC50 (Vero): 112 µg/mL (≈ 300 µM) | MIC (Enterococcus faecium): > 50 µg/mL | Activity (Providencia rettgeri): inactive | MIC [11]: > 50 µg/mL

COc1cc(C[C@@H](C)[C@@H](C)Cc2ccc(OC(=O)c3cnccn3)c(OC)c2)ccc1O (racemic)
MIC [1]: > 50 µg/mL | Activity (Klebsiella pneumoniae [2]): inactive | Selectivity Index [3]: 0.87 | selectivity ratio [4]: 0.86 | Activity [5]: inactive | MIC (Staphylococcus aureus [6]): 50 µg/mL | Activity (Escherichia coli [7]): inactive | Activity (Acinetobacter baumannii): inactive | Activity (Pseudomonas aeruginosa): inactive | Activity (Klebsiella pneumoniae [8]): inactive | Activity (Escherichia coli [9]): inactive | -logMIC [10]: 4.07 | MIC [10]: 50 µg/mL (≈ 115 µM) | IC50 (Vero): 43.3 µg/mL (≈ 99.3 µM) | MIC (Enterococcus faecium): > 50 µg/mL | Activity (Providencia rettgeri): inactive | MIC [11]: > 50 µg/mL

CCCCCCCCCCCCCCCC(=O)Oc1ccc(C[C@H](C)[C@H](C)Cc2ccc(O)c(OC)c2)cc1OC (racemic)
MIC [1]: > 50 µg/mL | Activity (Klebsiella pneumoniae [2]): inactive | Activity [5]: inactive | MIC (Staphylococcus aureus [6]): 50 µg/mL | Activity (Escherichia coli [7]): inactive | Activity (Acinetobacter baumannii): inactive | Activity (Pseudomonas aeruginosa): inactive | Activity (Klebsiella pneumoniae [8]): inactive | Activity (Escherichia coli [9]): inactive | -logMIC [10]: 4.54 | MIC (Enterococcus faecium): > 50 µg/mL | Activity (Providencia rettgeri): inactive | growth inhibition (GI) [12]: inactive | MIC [11]: > 50 µg/mL

COc1cc(C[C@@H](C)[C@@H](C)Cc2ccc(OC(=O)c3ccccn3)c(OC)c2)ccc1O (racemic)
MIC [1]: > 50 µg/mL | Activity (Klebsiella pneumoniae [2]): inactive | Selectivity Index [3]: 2.6 | selectivity ratio [4]: 1.3 | Activity [5]: inactive | MIC (Staphylococcus aureus [6]): 25 µg/mL | Activity (Escherichia coli [7]): inactive | Activity (Acinetobacter baumannii): inactive | Activity (Pseudomonas aeruginosa): inactive | Activity (Klebsiella pneumoniae [8]): inactive | Activity (Escherichia coli [9]): inactive | -logMIC [10]: 3.87 | MIC [10]: 50 µg/mL (≈ 115 µM) | IC50 (Vero): 65 µg/mL (≈ 149 µM) | MIC (Enterococcus faecium): > 50 µg/mL | Activity (Providencia rettgeri): inactive | MIC [11]: > 50 µg/mL

COc1cc(C[C@@H](C)[C@@H](C)Cc2ccc(OC)c(OC)c2)ccc1O (racemic)
MIC [1]: > 50 µg/mL | Activity (Klebsiella pneumoniae [2]): inactive | Selectivity Index [3]: 1.91 | selectivity ratio [4]: 0.96 | Activity [5]: inactive | MIC (Staphylococcus aureus [6]): 25 µg/mL | Activity (Escherichia coli [7]): inactive | Activity (Acinetobacter baumannii): inactive | Activity (Pseudomonas aeruginosa): inactive | Activity (Klebsiella pneumoniae [8]): inactive | Activity (Escherichia coli [9]): inactive | -logMIC [10]: 3.94 | MIC [10]: 50 µg/mL (≈ 145 µM) | IC50 (Vero): 47.8 µg/mL (≈ 139 µM) | MIC (Enterococcus faecium): > 50 µg/mL | Activity (Providencia rettgeri): inactive | MIC [11]: > 50 µg/mL

COc1cc(C[C@@H](C)[C@H](C)Cc2ccc(O)c(OC)c2)ccc1O [(-)-DIHYDROGUAIARETICACID]
MIC (Bacillus subtilis): 1600 µM (≈ 529 µg/mL) | MIC (Jonesia denitrificans): 400 µM (≈ 132 µg/mL)

C[C@H]1COc2c(N3CCN(C)CC3)c(F)cc3c(=O)c(C(=O)O)cn1c23.C[C@H]1COc2c(N3CCN(C)CC3)c(F)cc3c(=O)c(C(=O)O)cn1c23.O [LEVOFLOXACIN]
MIC [1]: 12.5 µg/mL | Selectivity Index [3]: 93.81 | MIC (Staphylococcus aureus [6]): 3.12 µg/mL | MIC [10]: 0.078 µg/mL | IC50 (Vero): 293 µg/mL | MIC (Enterococcus faecium): > 50 µg/mL | MIC [11]: 12.5 µg/mL

COc1cc(C[C@@H](C)[C@@H](C)Cc2ccc(O)c(OC)c2)ccc1O [MESODIHYDROGUAIARETIC ACID]
MIC (Staphylococcus aureus [13]): 1600 µM (≈ 529 µg/mL) | MIC (Bacillus subtilis): 1600 µM (≈ 529 µg/mL) | MIC (Staphylococcus aureus [14]): 50 µg/mL (≈ 151 µM) | MIC (Jonesia denitrificans): 1600 µM (≈ 529 µg/mL) | MIC [10]: 50 µg/mL (≈ 151 µM)
